Results reported in PubChem BioAssay (NCI).
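In this assay, cells in 96-well plates receive the compound at five concentrations for 48 hours. Endpoints are linearly interpolated between the surrounding concentrations. GI50 = concentration required for 50% inhibition of growth. TGI marks complete inhibition of growth.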

How the values were obtained:
Experiment in all cases: DTP human tumour cell line panel, 48 h
MCF7 breast = tested on: MCF7 breast
MOLT-4 leukemia = tested on: MOLT-4 leukemia
OVCAR-8 ovarian = tested on: OVCAR-8 ovarian
HOP-62 NSCLC = tested on: HOP-62 NSCLC
HCT-116 colon = tested on: HCT-116 colon
SNB-19 CNS = tested on: SNB-19 CNS
NCI/ADR-RES ovarian = tested on: NCI/ADR-RES ovarian
UACC-257 melanoma = tested on: UACC-257 melanoma
KM12 colon = tested on: KM12 colon
SK-MEL-5 melanoma = tested on: SK-MEL-5 melanoma
CCRF-CEM leukemia = tested on: CCRF-CEM leukemia
A549 NSCLC = tested on: A549 NSCLC
SK-MEL-28 melanoma = tested on: SK-MEL-28 melanoma
SF-295 CNS = tested on: SF-295 CNS
HT29 colon = tested on: HT29 colon
SNB-75 CNS = tested on: SNB-75 CNS
MDA-MB-435 = tested on: MDA-MB-435
NCI-H522 lung = tested on: NCI-H522 lung
PC-3 prostate = tested on: PC-3 prostate
HOP-92 NSCLC = tested on: HOP-92 NSCLC
NCI-H460 lung = tested on: NCI-H460 lung
ACHN renal = tested on: ACHN renal
MDA-MB-231 breast = tested on: MDA-MB-231 breast
OVCAR-3 ovarian = tested on: OVCAR-3 ovarian
HCT-15 colon = tested on: HCT-15 colon
LOX IMVI melanoma = tested on: LOX IMVI melanoma
OVCAR-4 ovarian = tested on: OVCAR-4 ovarian
RPMI-8226 leukemia = tested on: RPMI-8226 leukemia
CAKI-1 renal = tested on: CAKI-1 renal
T-47D breast = tested on: T-47D breast
K-562 leukemia = tested on: K-562 leukemia
U251 CNS = tested on: U251 CNS
BT-549 breast = tested on: BT-549 breast
OVCAR-5 ovarian = tested on: OVCAR-5 ovarian
RXF 393 renal = tested on: RXF 393 renal
MALME-3M melanoma = tested on: MALME-3M melanoma
TK-10 renal = tested on: TK-10 renal
UACC-62 melanoma = tested on: UACC-62 melanoma
HS 578T breast = tested on: HS 578T breast
SW-620 colon = tested on: SW-620 colon
SK-MEL-2 melanoma = tested on: SK-MEL-2 melanoma
UO-31 renal = tested on: UO-31 renal
NCI-H23 lung = tested on: NCI-H23 lung
IGROV1 ovarian = tested on: IGROV1 ovarian
HCC-2998 colon = tested on: HCC-2998 colon
HL-60(TB) leukemia = tested on: HL-60(TB) leukemia
NCI-H226 lung = tested on: NCI-H226 lung
M14 melanoma = tested on: M14 melanoma
A498 renal = tested on: A498 renal
COLO 205 colon = tested on: COLO 205 colon
SR leukemia = tested on: SR leukemia
DU-145 prostate = tested on: DU-145 prostate
SF-268 CNS = tested on: SF-268 CNS
SF-539 CNS = tested on: SF-539 CNS
SN12C renal = tested on: SN12C renal
786-0 renal = tested on: 786-0 renal
SK-OV-3 ovarian = tested on: SK-OV-3 ovarian

## CNCCCNCCCCNCCCN1C(=O)c2ccc3c4c(ccc(c24)C1=O)C(=O)N(CCCNCc1ccccc1OC)C3=O
MCF7 breast
  GI50: 2.77 µM
  TGI: 13 µM
MOLT-4 leukemia
  GI50: 5.21 µM
  TGI: 38.5 µM
OVCAR-8 ovarian
  GI50: 2.89 µM
  TGI: 54.6 µM
HOP-62 NSCLC
  GI50: 2.33 µM
  TGI: 25.6 µM
HCT-116 colon
  GI50: 2.04 µM
  TGI: 21.1 µM
SNB-19 CNS
  GI50: 3.79 µM
  TGI: 17.2 µM
NCI/ADR-RES ovarian
  GI50: 7.09 µM
  TGI: > 100 µM
UACC-257 melanoma
  GI50: 1.25 µM
  TGI: 8.07 µM
KM12 colon
  GI50: 2.75 µM
  TGI: 17.4 µM
SK-MEL-5 melanoma
  GI50: 0.813 µM
  TGI: 3 µM
CCRF-CEM leukemia
  GI50: 3.77 µM
  TGI: 39 µM
A549 NSCLC
  GI50: 3.45 µM
  TGI: 20.2 µM
SK-MEL-28 melanoma
  GI50: 1.4 µM
  TGI: 10.1 µM
SF-295 CNS
  GI50: 1.33 µM
  TGI: 12.8 µM
HT29 colon
  GI50: 3.36 µM
  TGI: 16.4 µM
SNB-75 CNS
  GI50: 1.05 µM
  TGI: 13.3 µM
MDA-MB-435
  GI50: 0.795 µM
  TGI: 6.21 µM
NCI-H522 lung
  GI50: 5.62 µM
  TGI: 27.2 µM
PC-3 prostate
  GI50: 7.45 µM
  TGI: 44.4 µM
HOP-92 NSCLC
  GI50: 2.21 µM
  TGI: 18.9 µM
NCI-H460 lung
  GI50: 2.53 µM
  TGI: 12.1 µM
ACHN renal
  GI50: 2.86 µM
  TGI: 30.1 µM
MDA-MB-231 breast
  GI50: 4.63 µM
  TGI: 70.2 µM
OVCAR-3 ovarian
  GI50: 2.93 µM
  TGI: 11.3 µM
HCT-15 colon
  GI50: 4.27 µM
  TGI: 70.1 µM
LOX IMVI melanoma
  GI50: 3.03 µM
  TGI: 14 µM
OVCAR-4 ovarian
  GI50: 1.7 µM
  TGI: 9.19 µM
RPMI-8226 leukemia
  GI50: 3 µM
  TGI: 22.8 µM
CAKI-1 renal
  GI50: 2.25 µM
  TGI: 24.4 µM
T-47D breast
  GI50: 0.342 µM
  TGI: 5.97 µM
K-562 leukemia
  GI50: 2.78 µM
  TGI: 34.6 µM
U251 CNS
  GI50: 3.24 µM
  TGI: 18 µM
BT-549 breast
  GI50: 3.4 µM
  TGI: 15.8 µM
OVCAR-5 ovarian
  GI50: 5.35 µM
  TGI: 26.9 µM
RXF 393 renal
  GI50: 3.82 µM
  TGI: 19.3 µM
MALME-3M melanoma
  GI50: 0.939 µM
  TGI: 3.05 µM
TK-10 renal
  GI50: 4.08 µM
  TGI: 43.5 µM
UACC-62 melanoma
  GI50: 0.711 µM
  TGI: 5.06 µM
HS 578T breast
  GI50: 2.9 µM
  TGI: 22 µM
SW-620 colon
  GI50: 2.16 µM
  TGI: 15.8 µM
SK-MEL-2 melanoma
  GI50: 4.46 µM
  TGI: 18.8 µM
UO-31 renal
  GI50: 4.31 µM
  TGI: 36.8 µM
NCI-H23 lung
  GI50: 2.99 µM
  TGI: 19.1 µM
IGROV1 ovarian
  GI50: 3.02 µM
  TGI: 19 µM
HCC-2998 colon
  GI50: 3.12 µM
  TGI: 20.2 µM
HL-60(TB) leukemia
  GI50: 3.68 µM
  TGI: 23.4 µM
NCI-H226 lung
  GI50: 2.17 µM
  TGI: 21.3 µM
M14 melanoma
  GI50: 2.63 µM
  TGI: 13.3 µM
A498 renal
  GI50: 1.78 µM
  TGI: 13.3 µM
COLO 205 colon
  GI50: 1.38 µM
  TGI: 8.16 µM
SR leukemia
  GI50: 4.42 µM
  TGI: 43.9 µM
DU-145 prostate
  GI50: 5.09 µM
  TGI: 17.3 µM
SF-268 CNS
  GI50: 3.51 µM
  TGI: 44.3 µM
SF-539 CNS
  GI50: 2.04 µM
  TGI: 6.82 µM
SN12C renal
  GI50: 2.95 µM
  TGI: 20.5 µM
786-0 renal
  GI50: 3.36 µM
  TGI: 29.8 µM
SK-OV-3 ovarian
  GI50: 6.19 µM
  TGI: 61.5 µM
